# What was measured:
# RSV strain A2 = assay: RSV HEp-2 EC50, infectious cytopathic cell protection assay; format: cell-based; conditions: human respiratory syncytial virus, 96 h; RSV A2 in HEp-2 cells, 4 days, Cell TiterGlo
# Experimental: Antiviral activity against RSV is determined using an infectious cytopathic cell protection assay in HEp-2 cells. In this assay, compounds inhibiting viral infection and/or replication produce a cytoprotective effect against the virus-induced cell killing that can be quantified using a cell viability reagent. The techniques used here are novel adaptations of methods described in published literature (Chapman et al., Antimicrob Agents Chemother. 2007, 51(9):3346-53.).
# HEp-2 cells are obtained from ATCC (Manassas, VI) and maintained in MEM media supplemented with 10% fetal bovine serum and penicillin/streptomycin. Cells are passaged twice a week and kept at subconfluent stage. Commercial stock of RSV strain A2 (Advanced Biotechnologies, Columbia, MD) is titered before compound testing to determine the appropriate dilution of the virus stock that generates desirable cytopathic effect in HEp-2 cells.
# For antiviral tests, HEp-2 cells are grown in large cell culture flasks to near confluency but not fully so. The compounds to be tested are prediluted in DMSO in 384-well compound dilution plates, either in an 8 or 40 sample per plate standardized dose response format. 3-fold serial dilution increments of each test compound are prepared in the plates and test samples are transferred via acoustic transfer apparatus (Echo, Labcyte) at 100 nL per well into cell culture assay 384-well plates. Each compound dilution is transferred in single or quadruplicate samples into dry assay plates, which are stored until assay is ready to go. The positive and negative controls are laid out in opposite on ends of the plate in vertical blocks (1 column).
# Subsequently, an infectious mixture is prepared using an appropriate dilution of virus stock previously determined by titration with cells at a density of 50,000/mL and 20 μL/well is added to test plates w/compounds via automation (uFlow, Biotek). Each plate includes negative and positive controls (16 replicates each) to create 0% and 100% virus inhibition standards, respectively. Following the infection with RSV, testing plates are incubated for 4 days in a 37° C. cell culture incubator. After the incubation, a cell viability reagent, Cell TiterGlo (Promega, Madison, WI) is added to the assay plates, which are incubated briefly, and a luminescent readout is measured (Envision, Perkin Elmer) in all the assay plates. The RSV-induced cytopathic effect, percentage inhibition, is determined from the levels of remaining cell viability. […] Various potent anti-RSV tool compounds are used as positive controls for antiviral activity.
# RSV A2 = assay: RSV NHBE EC50, RSV A2 antiviral assay; format: cell-based; conditions: human respiratory syncytial virus, 96 h; RSV A2 in NHBE cells, 4 days
# Experimental: Normal human bronchial epithelial (NHBE) cells were purchased from Lonza (Walkersville, MD, Cat #CC-2540) and cultured in Bronchial Epithelial Growth Media (BEGM) (Lonza, Walkersville, MD, Cat #CC-3170). The cells were passaged 1-2 times per week to maintain <80% confluency. The NHBE cells were discarded after 6 passages in culture.
# To conduct the RSV A2 antiviral assay, NHBE cells were plated in 96-well plates at a density of 7,500 cells per well in BEGM and allowed to attach overnight at 37° C. Following attachment, 100 μL of cell culture media was removed and 3-fold serially diluted compound was added using a Hewlett-Packard D300 Digital Dispenser. The final concentration of DMSO was normalized to 0.05%. Following compound addition, the NHBE cells were infected by the addition of 100 μL of RSV A2 at a titer of 1×10^4.5 tissue culture infectious doses/mL in BEGM and then incubated at 37° C. for 4 days. The NHBE cells were then allowed to equilibrate to 25° C. and cell viability was determined by removing 100 μL of culture medium and adding 100 μL of Cell-Titer Glo viability reagent. The mixtures were incubated for 10 minutes at 25° C., and the luminescence signal was quantified on an Envision luminescence plate reader.
# HRV16 = HRV16 HeLa EC50; format: cell-based, human rhinovirus; conditions: Human rhinovirus sp., HRV16; H1-HeLa cells, 96 h, 33° C.
# Experimental: H1-HeLa cells, cultured in complete DMEM medium containing 10% heat-inactivated FBS and 1% Penicillin/Streptomycin, were seeded in 96 well plates at 3000 cells/well one day prior to compound dosing and infection. The antiviral activity of each compound was measured in triplicate. Compounds were added directly to the cell cultures in serial 3-fold dilutions using the HP300 digital dispenser (Hewlett Packard, Palo Alto, CA) immediately prior to infection. The plates were transferred to BSL-2 containment and the appropriate dilution of virus stock, previously determined by titration and prepared in cell culture media, was added to test plates containing cells and serially diluted compounds. Each plate included 6 wells of infected untreated cells and 6 wells of uninfected cells that served as 0% and 100% virus inhibition control, respectively. Following the infection, test plates were incubated for 96 h in a tissue culture incubator set to 33° C./5% CO2. Following incubation, the H1-HeLa cells were removed from incubation and allowed to equilibrate to 25° C. Cell viability was determined by removing 100 μL of culture medium and adding 100 μL of Cell-Titer Glo viability reagent. The mixtures were incubated on a shaker for 10 minutes at 25° C., and the luminescence signal was quantified on an Envision luminescence plate reader.
# HRV1a = assay: HRV1A HeLa EC50; format: cell-based, human rhinovirus; conditions: Human rhinovirus sp., HRV1A, HeLa, 96 h, read-out: HRV1A HeLa EC50
# Experimental: (§1) H1-HeLa cells, cultured in complete RPMI 1640 medium containing 10% heat-inactivated FBS and 1% Penicillin/Streptomycin, were seeded in 96 well plates at 5000 cells/well one day prior to compound dosing and infection. The antiviral activity of each compound was measured in triplicate. Compounds were added directly to the cell cultures in serial 3-fold dilutions using the HP300 digital dispenser (Hewlett Packard, Palo Alto, CA) immediately prior to infection. The plates were transferred to BSL-2 containment and 100 μL of 1/4000 dilution of HRV1a virus stock was added to each well containing cells and serially diluted compounds. Each plate included 6 wells of infected untreated cells and 6 wells of cells containing 5 μM Rupintrivir that served as 0% and 100% virus inhibition control, respectively. Following the infection, test plates were incubated for 96 h in a tissue culture incubator set to 37° C./5% CO2. Following incubation, the H1-HeLa cells were removed from incubation and allowed to equilibrate to 25° C. Cell viability was determined by removing 100 μL of culture medium and adding 100 μL of Cell-Titer Glo viability reagent. The mixtures were incubated on a shaker for 10 minutes at 25° C., and the luminescence signal was quantified on an Envision luminescence plate reader.
# HRV14 = HRV14 HeLa EC50; format: cell-based, human rhinovirus; conditions: Human rhinovirus sp., HRV14; H1-HeLa cells, 96 h, 37° C.
# Experimental: as §1, with “HRV14” for “HRV1a”
# HEp-2 cytotoxicity assay = format: cell-based; conditions: human, HEp-2 cells (uninfected), 4-5 days
# Experimental: (§2) Cytotoxicity of the compound of Formula I and compounds 1, 2, and 6 was determined in uninfected cells using the cell viability reagent in a similar fashion as described before for other cell types (Cihlar et al., Antimicrob Agents Chemother. 2008, 52(2):655-65.). HEp-2 (1.5×10^3 cells/well) and MT-4 (2×10^3 cells/well) cells were plated in 384-well plates and incubated with the appropriate medium containing 3-fold serially diluted compound ranging from 15 nM to 100,000 nM. Cells were cultured for 4-5 days at 37° C. Following the incubation, the cells were allowed to equilibrate to 25° C., and cell viability was determined by adding Cell-Titer Glo viability reagent. The mixture was incubated for 10 min, and the luminescence signal was quantified using an Envision plate reader. Untreated cell and cells treated at 2 μM puromycin (Sigma, St. Louis, MO) serve as 100% and 0% cell viability control, respectively.
# MT-4 cytotoxicity assay = format: cell-based; conditions: human, MT-4 cells (uninfected), 4-5 days, read-out: CC50 MT4
# Experimental: as §2
# [1] = Stability assay in human hepatic S9 fractions; format: in vitro ADME; conditions: 37° C., NADPH and UDPGA, read-out: Hum HepS9 t1/2
# Experimental: For S9 stability, the compounds were incubated at 2 μM in cynomolgus monkey or human hepatic S9 fractions for up to 90 min at 37° C. in the presence of NADPH and UDPGA (Phase I and Phase II cofactor, Sigma-Aldrich). At desired time points following compound addition, samples were quenched with 9 volumes of an aqueous solution containing internal standard, 50% acetonitrile and 25% methanol. Sample plates were centrifuged at 3000 g for 30 min, and 10 μL of the resulting solution was analyzed by LC-MS/MS. Data (analyte to internal standard peak area ratio) were plotted on a semi log scale and fitted using an exponential fit. The half-life (T1/2) was determined assuming first order kinetics.
# in vitro = in vitro ADME; conditions: human, plasma, 37° C., up to 4 h, read-out: Hum Plasma t1/2
# Experimental: For plasma stability, the compounds were incubated at 2 μM in cynomolgus monkey or human plasma for up to 4 h at 37° C. At desired time points, an aliquot from the incubation was quenched by addition of 9 volumes of 100% acetonitrile supplemented with internal standard. Following the last collection, samples were centrifuged at 3000 g for 30 min and supernatants were transferred to a new plate containing an equal volume of water for analysis by liquid chromatography coupled to triple quadrupole mass spectrometry (LC-MS/MS). Data (analyte to internal standard peak area ratio) were plotted on a semi log scale and fitted using an exponential fit. The half-life (T1/2) was determined assuming first order kinetics.
smiles,measurement,setting,value
"C[C@H](N[P@@](=O)(OC[C@@]1(C#N)O[C@@H](c2ccc3c(N)ncnn23)[C@H](O)[C@@H]1O)Oc1ccccc1)C(=O)OC1CCCCC1 (single isomer, unassigned) [Formula Ib]",EC50,RSV strain A2,2740 nM
same,EC50,RSV A2,630 nM
same,EC50,HRV16,654 nM
"CC(C)OC(=O)[C@H](C)NP(=O)(OC[C@@]1(C#N)O[C@@H](c2ccc3c(N)ncnn23)[C@H](O)[C@@H]1O)Oc1ccccc1 (stereo partly drawn) [Compound 3, isopropyl ((((2R,3S,4R,5S)-5-(4-aminopyrrolo[2,1-f][1,2,4]triazin-7-yl)-2-cyano-3,4-dihydroxytetrahydrofuran-2-yl)methoxy)(phenoxy)phosphoryl)-L-alaninate]",EC50,RSV strain A2,463 nM
same,EC50,RSV A2,1150 nM
same,EC50,HRV16,1420 nM
same,EC50,HRV1a,735 nM
same,EC50,HRV14,1810 nM
"CC(C)OC(=O)[C@H](C)N[P@](=O)(OC[C@@]1(C#N)O[C@@H](c2ccc3c(N)ncnn23)[C@H](O)[C@@H]1O)Oc1ccccc1 [Compound 4, (S)-isopropyl 2-(((S)-(((2R,3S,4R,5S)-5-(4-aminopyrrolo[2,1-f][1,2,4]triazin-7-yl)-2-cyano-3,4-dihydroxytetrahydrofuran-2-yl)methoxy)(phenoxy)phosphoryl)amino)propanoate]",EC50,RSV strain A2,342 nM
same,EC50,RSV A2,879 nM
same,EC50,HRV16,965 nM
"CCC(CC)OC(=O)[C@H](C)NP(=O)(OC[C@@]1(C#N)O[C@@H](c2ccc3c(N)ncnn23)[C@H](O)[C@@H]1O)Oc1ccccc1 (stereo partly drawn) [Compound 5, (2S)-pentan-3-yl 2-(((((2R,3S,4R,5S)-5-(4-aminopyrrolo[2,1-f][1,2,4]triazin-7-yl)-2-cyano-3,4-dihydroxytetrahydrofuran-2-yl)methoxy)(phenoxy)phosphoryl)amino)propanoate]",EC50,RSV strain A2,1740 nM
same,EC50,RSV A2,1240 nM
same,EC50,HRV16,3130 nM
same,EC50,HRV1a,1620 nM
same,EC50,HRV14,3430 nM
"CCOC(=O)[C@H](C)N[P@](=O)(OC[C@@]1(C#N)O[C@@H](c2ccc3c(N)ncnn23)[C@H](O)[C@@H]1O)Oc1ccccc1 [Compound 8, ethyl ((S)-(((2R,3S,4R,5S)-5-(4-aminopyrrolo[2,1-f][1,2,4]triazin-7-yl)-2-cyano-3,4-dihydroxytetrahydrofuran-2-yl)methoxy)(phenoxy)phosphoryl)-L-alaninate]",EC50,RSV strain A2,91 nM
same,EC50,RSV A2,932 nM
same,EC50,HRV16,678 nM
same,CC50,HEp-2 cytotoxicity assay,> 100000 nM
same,CC50,MT-4 cytotoxicity assay,28300 nM
same,half-life at 2 μM,[1],2 min
same,half-life at 2 μM,in vitro,6.02 h
"C[C@H](NP(=O)(OC[C@@]1(C#N)O[C@@H](c2ccc3c(N)ncnn23)[C@H](O)[C@@H]1O)Oc1ccccc1)C(=O)OC1CCCCC1 (stereo partly drawn) [Formula Ia, (2S)-cyclohexyl 2-(((((2R,3S,4R,5S)-5-(4-aminopyrrolo[2,1-f][1,2,4]triazin-7-yl)-2-cyano-3,4-dihydroxytetrahydrofuran-2-yl)methoxy)(phenoxy)phosphoryl)amino)propanoate]",EC50,RSV strain A2,96 nM
same,EC50,RSV A2,76 nM
same,EC50,HRV16,510 nM

# Source: patent US20250034186A1, “ANTIVIRAL COMPOUNDS” (priority 2020, published 2025)
